Test results: US20220062331A1, “TREATING IRON DEFICIENCY IN SUBJECTS AT RISK OF CARDIOVASCULAR ADVERSE EVENTS AND IRON FOR THE MANAGEMENT OF ATRIAL FIBRILLATION” (PHARMACOSMOS HOLDING A/S, priority 2019, published 2022)

Legend:
iFGF23 (intact FGF23) = settings: cited from earlier work
[1] = CKD-04 Phase III study: protocol defined cardiovascular adverse events; type: in vivo, human; settings: for composite cardiovascular events (incidence, % of patients): CKD-04 study, IIM 1000 mg single dose (1019 patients) vs iron sucrose 5 x 200 mg (506 patients), within 8 weeks
Description: (§1) Two Phase III randomized, open-label, comparative safety and efficacy studies were performed in relation to treatment with iron isomaltoside (“IIM”, tradename Monofer®, Monoferric®) and iron sucrose (“IS”, trade name Venofer®) in adult human subjects with iron deficiency anaemia and non-dialysis-dependent chronic kidney disease. These studies allowed comparing the incidence of treatment-emergent cardiovascular adverse events in particular in patients with cardiovascular risk factors.
(§2) The studies were randomized, open-label, comparative studies. Subjects with iron deficiency anaemia (IDA) were randomized 1:1 to one treatment course of one of two treatments. Iron isomaltoside 1000 was administered as a single dose of 1000 mg of elemental iron. Iron sucrose was administered as 200 mg slow intravenous bolus injections according to its US label and repeated up to 5 times to reach a cumulative dose of 1000 mg. […]

[2] = IDA-03 Phase III study: protocol defined cardiovascular adverse events; type: in vivo, human; settings: IDA-03 study, 989 vs 494 patients, within 8 weeks
Description: as §1, §2

[3] = Combined CKD-04/IDA-03 studies: treatment-emergent cardiovascular and congestive heart failure adverse events; type: in vivo; settings: for composite cardiovascular events (incidence, % of patients): 2008 patients on IIM, p=0.0176; for treatment-emergent congestive heart failure adverse events (% of patients) / worsening/exacerbation of heart failure (% of cases): all patients with CHF
Description: as §1
The studies were randomized, open-label, comparative studies. Subjects with iron deficiency anaemia (IDA) were randomized 1:1 to one treatment course of one of two treatments. Iron isomaltoside 1000 was administered as a single dose of 1000 mg of elemental iron. Iron sucrose was administered as 200 mg slow intravenous bolus injections according to its US label and repeated up to 5 times to reach a cumulative dose of 1000 mg.
Said protocol defined cardiovascular adverse events were as follows: • (1) Congestive heart failure requiring hospitalization or medical intervention: • Congestive heart failure requiring hospitalization or medical intervention was defined as meeting the following criteria: • Requires hospitalization defined as an admission to an inpatient unit or a visit to an emergency department that results in at least a 12-hour stay (or a date change if the time of admission/discharge is not available); AND • Clinical manifestation of congestive heart failure including at least one of the following: new or worsening dyspnoea, orthopnoea, paroxysmal nocturnal dyspnoea, oedema, pulmonary basilar crackles, jugular venous distension, or radiological evidence of worsening heart failure; AND • Additional/increased therapy: • Intravenous treatment with diuretic, inotrope, or vasodilator therapy; OR • Mechanical or surgical intervention (mechanical circulatory support, heart transplantation, or ventricular pacing to improve cardiac function) or the use of ultrafiltration, hemofiltration, or dialysis that is specifically directed at treatment of heart failure. • (2) Arrhythmia: • Arrhythmia was defined as any symptomatic deviation from normal sinus rhythm experienced by the subject that results in an evaluation by a health care provider. The evaluation included a physical examination during an outpatient visit, an ECG, or a hospital admission. […]

[4] = Combined CKD-04/IDA-03 studies: change from baseline in hemoglobin; type: in vivo, human
Description: The primary efficacy outcome measure was the ability to increase Hb (g/dL) within 8 weeks.
The co-primary efficacy endpoint was analysed using a restricted maximum likelihood (REML)-based mixed model for repeated measures (MMRM) approach. All subjects in the intention-to-treat (ITT) analysis set with post baseline Hb data was to be included with their observed data. The model included the fixed, categorical effects of treatment (iron isomaltoside and iron sucrose), week, treatment-by-week interaction, strata, as well as the continuous, fixed covariates of baseline Hb value and baseline Hb-by-week interaction. An unstructured (co)variance structure was used to model the within-subject errors. […] The Kenward-Roger approximation was to be used to estimate the denominator degrees of freedom. The primary comparisons will be the contrasts between iron isomaltoside and iron sucrose at week 8 based on the least squares means for the treatment-by-week interaction effect. The estimated mean difference based on this model was reported with two-sided symmetric 95% CI, and if the lower bound of the 95% CI is >−0.5 g/dL, the efficacy objective has been met.
The following efficacy laboratory parameters were analysed: • Hb: Hemoglobin was analyzed by the Coulter LH 750 System. Lytic reagents were used for the complete blood count parameters to prepare the blood so that the system could measure the amount of hemoglobin. The lytic reagent rapidly and simultaneously destroyed the erythrocytes and converted the substantial proportion of the hemoglobin to a stable pigment. The absorbance of the pigment was directly proportional to the hemoglobin concentration in the sample. […] A chemiluminescent substrate, Lumi-Phos* 530, was added to the reaction vessel and light generated by the reaction was measured with a luminometer. • TSAT (s-iron and transferrin will be collected to calculate the TSAT; TSAT=(iron μg/dL/transferrin mg/dL)×70.9). • S-iron: Serum iron (s-iron) was measured by a calorimetric assay using Roche automated clinical chemistry analyzer based on a immunoturbidimetric assay.

[5] = Randomized double-blind placebo-controlled trial in chronic heart failure patients: P-wave dispersion on 12-lead ECG (post-hoc analysis); type: in vivo, human
From the text: This study was a post-hoc analysis of a randomized, double-blind, placebo-controlled trial that was approved by the South-Central Berkshire ethics committee, the UK Medicines and Healthcare products Regulatory Agency, and the King's College Hospital independent research governance board. King's College London University and King's College Hospital NHS Foundation Trust were co-sponsors. The King's Health Partners clinical trial office monitored the trial and ensured compliance with the International Conference on Harmonization guidelines for Good Clinical Practice and the Declaration of Helsinki. Written informed consent was obtained from all patients. FIG. 1 represents a flow chart of the trial. A total of 25 chronic heart failure patients in normal sinus rhythm were recruited into this trial with 15 randomized to intravenous saline placebo and 10 randomized to intravenous iron isomaltoside.
Patients with stable, symptomatic, chronic heart failure and a left ventricular ejection fraction <45% were recruited from dedicated heart failure clinics at King's College Hospital, London. Main exclusion criteria were a history of acquired iron overload, known haemochromatosis or first degree relatives with haemochromatosis; an allergic disorder (e.g., asthma, eczema, and anaphylactic reactions); prior hypersensitivity to IV iron drugs or their excipients; active infection, bleeding, malignancy, haemolytic anemia, rheumatoid arthritis, and myelodysplasia; and HIV/AIDS.
After inclusion into the trial, patients had endpoints assessed which included a 12-lead surface electrocardiogram to measure P-wave dispersion (difference between maximum and minimum P-wave duration across all leads), heart rate (HR), PR interval, QRS duration, QT interval and corrected QT interval (QTc). FIG. 2 is an example of a surface electrocardiogram with P-wave durations measured. An echocardiogram was also done to measure LVEF, left ventricular end-diastolic volume (LVED), left ventricular end-systolic volume (LVES), left atrial (LA) volumes and right atrial (RA) volumes with and without indexing for body surface area. After baseline assessments, patients were then infused a total repletion dose of iron isomaltoside or an equivalent volume of normal saline placebo. Endpoints were then reassessed 2 weeks later. A Student's t-test or a Fisher's Exact test were statistically used to assess the baseline characteristics between the groups. An ANCOVA was used to statistically compare the week 2 endpoint results between the groups with adjustment for each variables baseline value.

[6] = iron-deficient CHF patients with LVEF ≤45%; single total dose infusion (Jaumdally et al., 2019); cited from earlier work
[7] = 20 elderly CHF patients, cited from earlier work
[8] = single total dose infusion; 2 weeks post-infusion; cited from earlier work

For ferric carboxymaltose, the “effect on iFGF23” value (iFGF23 (intact FGF23); see WO 2013/134273 A1) is given as “significantly increases”.

In the case of “ferric derisomaltose [iron isomaltoside 1000]”, the “probability of not experiencing an adjudicated composite adverse cardiovascular event, compared to iron sucrose” value ([1]; CKD-04, after 8 weeks, Kaplan-Meier) is reported as “significantly higher”, the “composite cardiovascular events (incidence, % of patients)” value [1] is reported as 4.1% and the “composite cardiovascular events (incidence, % of patients)” value [2] is reported as 0.8%. For the same substance, the “composite cardiovascular events (incidence, % of patients)” value ([2]; listed as iron) was 1.2%, the “incidence on composite CV endpoint (and most sub-items including death from any cause) compared to Venofer and FCM (CDER report)” value ([3]; Ferwon studies vs Injectafer FDA CDER report) was “lower” and the “decrease of composite cardiovascular events when treated with iron isomaltoside 1000 versus iron sucrose” value ([3]; combined CKD-04/IDA-03) was 60%. For the same substance, the “composite cardiovascular events (incidence, % of patients)” value ([3]; combined CKD-04/IDA-03) was 2.5%, the “treatment-emergent congestive heart failure adverse events (% of patients)” value ([3]; combined CKD-04/IDA-03) was 1.8% and the “worsening/exacerbation of heart failure (% of cases)” value ([3]; combined CKD-04/IDA-03) was 1.8%. The “rates of congestive heart failure, hypertension, atrial fibrillation, hypotension, and cardiac arrest compared to iron sucrose” value ([3]; in each study (CKD-04, IDA-03, combined)) was “lower”, the “incidence for congestive heart failure” value ([3]; patients with CV risk) was 1.2% and the “worsening of congestive heart failure” value ([3]; patients with CV risk) was 1.2%. For the same substance, the “incidence for congestive heart failure” value ([3]; patients with CV risk and CHF) was 1.4%, the “worsening of congestive heart failure” value ([3]; patients with CV risk and CHF) was 1.4% and the “increase in Hb from baseline compared to iron sucrose” value ([4]; all patients, weeks 1 and 2, p<0.001) was “higher increase”. For the same substance, the “change in Hb from baseline compared to iron sucrose (primary efficacy endpoint)” value ([4]; all patients, weeks 4 and 8) was “non-inferiority”, the “increase in Hb from baseline” value ([4]; patients with congestive heart failure in medical history, week 1 and 2) was “higher increase” and the “P-wave dispersion, changes in individual patients (FIG. 5)” value ([5]; ANCOVA P-value 0.007, unchanged in saline placebo group) was “shortened”. The “reduction of P-wave dispersion” value ([5]; at 2 weeks after total repletion dose, vs saline placebo, P=0.007) was 10 ms, the “P-wave dispersion, adjusted difference between the groups (ANCOVA)” value ([5]; at 2 weeks, 95% confidence interval −17 & −3 msec, P=0.007) was -10 ms and the “P-wave dispersion difference after adjusting for size of the atria (indexed LA and RA volumes)” value ([5]; at 2 weeks, 95% confidence interval −18 & −4 msec, P=0.005) was -11 ms. The “effect on the other endpoints (HR, PR, QRS, QT, QTc, LVEF, LV and atrial volumes)” value ([5]; at 2 weeks, ANCOVA) was “no significant effect”, the P wave dispersion [6] was “attenuate” and the QoL measures [7] was “improved”. The tolerability ([7]; single fast intravenous infusion at relatively high doses without test dose) was “very well tolerated”, the iron stores [8] was “repleted” and the skeletal muscle energetics [8] was “augmented”. For the same substance, the “risk for increasing iFGF23 and triggering iFGF23-mediated effects” value (iFGF23 (intact FGF23); clinical trials, Wolf et al., 2019) was “low”.

For iron sucrose, the “composite cardiovascular events (incidence, % of patients)” value [1] was 6.9%, the “composite cardiovascular events (incidence, % of patients)” value ([3]; combined CKD-04/IDA-03) was 4.1% and the “treatment-emergent congestive heart failure adverse events (% of patients)” value ([3]; combined CKD-04/IDA-03) was 6.5%. For the same substance, the “worsening/exacerbation of heart failure (% of cases)” value ([3]; combined CKD-04/IDA-03) was 5.4%, the “incidence for congestive heart failure” value ([3]; patients with CV risk) was 3.5% and the “worsening of congestive heart failure” value ([3]; patients with CV risk) was 1.7%. For the same substance, the “incidence for congestive heart failure” value ([3]; patients with CV risk and CHF) was 4.9% and the “worsening of congestive heart failure” value ([3]; patients with CV risk and CHF) was 3.7%.
